± gives the expanded uncertainty stated by the source.
Columns and labels:
[1] = for mass density: 101.33 kPa, Vibrating tube method; for Normal melting temperature: visual observation
[2] = refractive index (Na D-line) (dimensionless); settings: 101.33 kPa, Liquid, Standard Abbe refractometry

Structure (SMILES) | mass density ([1]; 298.15 K, Liquid) | Normal boiling temperature ([1]; Liquid, Manometric method) | refractive index ([2]; 298.15 K) | mass density ([1]; 314.45 K, Liquid) | Normal melting temperature ([1]; Crystal) | refractive index ([2]; 314.45 K) | mass density ([1]; 298.15 K, Crystal)
CC(=O)CC(C)C [4-methylpentan-2-one] | 799.8 ± 0.3 kg/m3 | 117.60 ± 0.1 °C | 1.396 ± 0.0008 | – | – | – | –
Oc1ccccc1 [phenol] | – | – | – | 1061 ± 1 kg/m3 | 41.30 ± 0.5 °C | 1.5425 ± 0.0007 | –
Oc1ccc(O)cc1 [1,4-benzenediol] | – | – | – | – | 171.40 ± 0.5 °C | – | 1338 ± 2 kg/m3

— the NIST ThermoML archive (doi:10.1016/j.fluid.2007.05.026)
